Experimental data: patent US20090170768A1, “WATER-SOLUBLE CARBON NANOTUBE COMPOSITIONS FOR DRUG DELIVERY AND MEDICINAL APPLICATIONS” (William Marsh Rice University, priority 2007, published 2009)
Read-outs that look alike come from different tables or passages of the source.

Assays:
Tu167 cells = experiment: MTT assay, in vitro cell killing in Tu167 cells; format: cell-based
Method: (§1) For the analyses, the analyses presented in FIGS. 1 and 2, the paclitaxel was dissolved in either acidic MeOH (FIG. 1) or neutral MeOH (FIG. 2) prior to association with the PEG-functionalized SWNTs. The MeOH was removed from the compositions by evaporation following sequestration of the paclitaxel by the PEG-functionalized SWNT matrix. MeOH removal was performed prior to MTT analysis. […] The control paclitaxel was dissolved in a cremaphor vehicle.

[1] = Paclitaxel solubilization in water with or without PEG-functionalized carbon nanotubes
UMSCC1 cells = experiment: MTT assay, in vitro cell killing in UMSCC1 cells; format: cell-based; details: Homo sapiens
Method: as §1
For the analysis presented in FIG. 4, the paclitaxel was dissolved in EtOH prior to association with the PEG-functionalized SWNTs. The EtOH was removed from the compositions by evaporation following sequestration of the paclitaxel by the PEG-functionalized SWNT matrix. EtOH removal was performed prior to MTT analysis.

cells = experiment: Intracellular delivery of FITC (cell fluorescence); format: cell-based; details: provided to cells
Text: In certain embodiments, the compositions provide intracellular delivery of the at least one type of payload molecule. The intracellular delivery may occur in vitro or in vivo. […] Thus, the compositions provide intracellular delivery of the at least one type of payload molecule.

Row | precipitation from solution ([1]; 1 mg paclitaxel in 70 μL ethanol added to 1 mL of a solution containing PEG-functionalized carbon nanotubes) | precipitation from solution ([1]; 1 mg paclitaxel in 70 μL ethanol added to 1 mL of water) | Compound | IC50 (Tu167 cells; Tu167 cells, MTT, vehicle per row (cremaphor or aqueous), R^2 in parentheses, read-out: Tu167 IC50 (nm): R^2) | IC50 (Tu167 cells; dissolved in cremaphor vehicle (FIG. 3), read-out: IC50 in Tu167 cells) | IC50 (UMSCC1 cells; UMSCC1, cremaphor vehicle (FIG. 5), read-out: IC50 in UMSCC1 cells) | IC50 (UMSCC1 cells; UMSCC1 cells, MTT, vehicle per row (cremaphor or aqueous), R^2 in parentheses, read-out: UMSCCI IC50 (nm): R^2) | intracellular fluorescence (cells)
1 | no paclitaxel precipitates from solution | immediately precipitates from solution | CC(=O)O[C@H]1C(=O)[C@@]2(C)[C@H]([C@H](OC(=O)c3ccccc3)[C@]3(O)C[C@H](OC(=O)[C@H](O)[C@@H](NC(=O)c4ccccc4)c4ccccc4)C(C)=C1C3(C)C)[C@]1(OC(C)=O)CO[C@@H]1C[C@@H]2O [PACLITAXEL, paclitaxel] | 0.62 nM | 0.62 nM | 0.26 nM | 0.26 nM | –
2 | – | – | fluorescein isothiocyanate [FITC] | – | – | – | – | no intracellular fluorescence was observed
